Consider 2 molecules from patent publication US20210046162A1, “Teriparatide Use for Bone Stress Fractures/Reactions” (University of South Carolina, priority 2019, published 2021).

For series [1] the following is noted: cited from earlier work; for bioavailability: after subcutaneous injection.
The next series relates to distal radial fracture. The conditions noted are these: cited from earlier work; for time to radiographic healing: placebo 9.1 weeks.
The subject of the next series is stress fractures (DTSFs). Kind of series: Teriparatide therapy of stress fractures in NCAA collegiate athletes (FIG. 8). The format is in vivo, humans. The conditions noted are these: 20 mcg dose, at least 28 days. From the text:
The current disclosure has administered teriparatide at the 20 mcg dose to young adult NCAA collegiate athletes who have DTSFs. Our promising clinical findings, see, e.g., FIG. 8, have led us to hypothesize that teriparatide will have a positive effect on bone healing and return to duty among service members with DTSFs. While a dosage of 20 mcg has been found effective, other dosages are considered within the scope of this application such as ranges from 5-50 mcg, 10-40 mcg, 15-35 mcg, 20-30 mcg, etc. In one embodiment, the preferred range is 10 mcg-40 mcg.
The PTH peptide can also be administered in conjunction with other therapeutic agents such as bisphonates, calcium, vitamin D, estrogen or estrogen-receptor binding compounds, selective estrogen receptor modulators (SERMs), bone morphogenic proteins and/or calcitonin. In one embodiment, 500 mg calcium may be administered daily for the duration of treatment with teriparatide. Vitamin D may also be administered along with teriparatide. Unless a patient is hypercalemic, defined as a total serum calcium concentration >10.4 mg/dL (>2.60 mmol/L) or ionized serum calcium >5.2 mg/dL (>1.30 mmol/L), calcium would be used as part of the treatment regimen. For patients with low vitamin D concentrations, defined as a 25(OH)D concentration of 12 to 20 ng/mL (30 to 50 nmol/L), Vitamin D may also be administered during treatment descried herein. […]

Series [2] is described as follows: Plasma teriparatide concentrations after a single subcutaneous injection (FIG. 9). The conditions noted are these: sc.
From the text: (§1) As used herein “peak concentration (CMAX) of PTH peptide in a blood plasma”, “area under concentration vs. time curve (AUC) of PTH peptide in a blood plasma”, “time to maximal plasma concentration (tMAX) of PTH peptide in a blood plasma” are pharmacokinetic parameters known to one skilled in the art. […] The “concentration vs. time curve” measures the concentration of PTH peptide in a blood serum of a subject vs. time after administration of a dosage of PTH peptide to the subject either by intranasal, intramuscular, subcutaneous, or other parenteral route of administration. “CMAX” is the maximum concentration of PTH peptide in the blood serum of a subject following a single dosage of PTH peptide to the subject. “TMAX” is the time to reach maximum concentration of PTH peptide in a blood serum of a subject following administration of a single dosage of PTH peptide to the subject. […] Mean changes of teriparatide acetate (in picograms per liter) in plasma after a single subcutaneous injection of teriparatide (filled circle 56.5 μg, filled triangle 28.2 μg) to 360 min. Bars represent standard deviation.
For series [3] the following is noted: in vivo, sc.
From the text: as §1
The test system of another series is osteosarcoma. To be noted: over 16,000 unique patients, post-market analysis; cited from earlier work.
A further series concerns tibial fractures. The conditions noted are these: rats, after 20 and 40 days of healing, cited from earlier work.

A word on the bioavailability: it is the share of a dose that reaches the circulation, judged against a reference dose that is usually intravenous. By half-life is commonly meant the time in which the quantity being followed falls by half. As a reminder, the Cmax is the peak of the concentration-time curve. In general, Tmax refers to the time from dosing to the highest level.

Read-outs that look alike come from different tables or passages of the source.

Take “PTH 1-84: full-length human parathyroid hormone, an 84 amino acids peptide with N-terminal and C-terminal regions”: in series [1], the bioavailability is on record as 55%. For the same molecule, the duration of action entry in series [1] (compared with PTH 1-34) is given as “longer”. Further, in series [1] (subcutaneous injection), the “half-life after subcutaneous injection” value is “approximately 2.5 hours”.

With `CC[C@H](C)[C@H](NC(=O)[C@H](CCC(=O)O)NC(=O)[C@H](CO)NC(=O)[C@@H](NC(=O)[C@@H](N)CO)C(C)C)C(=O)N[C@@H](CCC(N)=O)C(=O)N[C@@H](CC(C)C)C(=O)N[C@@H](CCSC)C(=O)N[C@@H](Cc1cnc[nH]1)C(=O)N[C@@H](CC(N)=O)C(=O)N[C@@H](CC(C)C)C(=O)NCC(=O)N[C@@H](CCCCN)C(=O)N[C@@H](Cc1cnc[nH]1)C(=O)N[C@@H](CC(C)C)C(=O)N[C@@H](CC(N)=O)C(=O)N[C@@H](CO)C(=O)N[C@@H](CCSC)C(=O)N[C@@H](CCC(=O)O)C(=O)N[C@@H](CCCN=C(N)N)C(=O)N[C@H](C(=O)N[C@@H](CCC(=O)O)C(=O)N[C@@H](Cc1c[nH]c2ccccc12)C(=O)N[C@@H](CC(C)C)C(=O)N[C@@H](CCCN=C(N)N)C(=O)N[C@@H](CCCCN)C(=O)N[C@@H](CCCCN)C(=O)N[C@@H](CC(C)C)C(=O)N[C@@H](CCC(N)=O)C(=O)N[C@@H](CC(=O)O)C(=O)N[C@H](C(=O)N[C@@H](Cc1cnc[nH]1)C(=O)N[C@@H](CC(N)=O)C(=O)N[C@@H](Cc1ccccc1)C(=O)O)C(C)C)C(C)C` [teriparatide], in the series on distal radial fracture (20 mcg daily for 8 weeks), the “time to healing compared with placebo group” value is given as “shorter” and the “time to radiographic healing” value is on record as 7.4 weeks. In the series on distal radial fracture (40 mcg daily for 8 weeks), the “improvement in healing time compared with placebo” value is given as “not a statistically significant improvement” and the “time to radiographic healing” value is 8.8 weeks. Also, in the series with stress fractures (DTSFs), the “healing of the subjects' stress fractures” value was “resulted in healing”. The bioavailability in series [1] was 95%. In addition, in series [1] (subcutaneous injection), the Absolute bioavailability is 95%, the half-life result is listed as “approximately 1 hour”, the “half-life after subcutaneous injection” value is on record as “approximately 1 hours” and the “time to peak concentrations” value is 30 min. Also, in series [2] (28.2 ug), the Cmax stood at 0.193 ± 0.0353 ng/mL, the Tmax is 0.9 h and the half-life was 1.16 ± 0.217 h. In addition, in series [2] (56.5 ug), the Cmax turned out to be 0.338 ± 0.134 ng/mL, the Tmax is 0.875 h and the half-life was 1.29 ± 0.587 h. Further, in series [3] (28.2 ug), the AUCinf is 28.07 ± 2.47 ng/min/mL and the AUClast was determined as 25.84 ± 3.18 ng/min/mL. Further, in series [3] (56.5 ug), the AUCinf is 52.73 ± 10.03 ng/min/mL, the AUClast worked out at 49.91 ± 11.33 ng/min/mL and the “time after the injection at which Cmax was achieved” value came to 1 h. Also, the “reported cases of osteosarcoma in humans” value in the series on osteosarcoma was “have not been any reported cases”. For the same molecule, in the series with tibial fractures (60 and 200 kg/day once daily), the “mechanical strength of fractures” value is on record as “increased”. Besides, in the series with tibial fractures (once daily), the callus quantity is reported as “increased”.
